Test [1] concerns ACHN cells. The test can be described thus: Lipid droplet staining (Bodipy 493/503), ACHN. Type of test: cell-based, human. The settings on record: 24 hrs; p<0.001 vs control. The protocol: (§1) Cells were grown on coverslips then treated with drug for 24 hours. Cells were fixed in 4% paraformaldehyde for 15 min, rinsed with PBS. Cells were washed with a 1% saponin solution for 15 min at room temperature then washed several times in PBS to remove detergent. Cells were then incubated in Bodipy (ThermoFisher #D3922) at a final concentration of 1 uM for 10 min. Bodipy was removed and slides were rinsed with PBS then air dried and mounted on slides using Dako mounting media with Dapi.

Test [2] deals with Atg5+/+ murine embryonic fibroblasts. The test can be described thus: Lipid droplet number in Atg5+/+ MEFs. It is filed as cell-based, mouse. To be noted: 24 hr. The method, then:
as §1

Test [3] relates to ACHN xenografts. The test can be described thus: ACHN xenograft study. It is filed as in vivo. The protocol:
(§2) 6-week old mice were utilized for human renal cell carcinoma xenografts. For both ACHN and SN12C cell lines 2×10^6 cells were diluted in 50 μl of PBS and 50 μl of Matrigel (BD Biosciences) and were injected subcutaneously into the right and left flank of each mouse. Tumors were monitored until they reached an average size of 50-80 mm3 (approximately 2 weeks), at which point treatments were begun. […] MK2206 (60 mg/kg/day) were administered by oral gavage 2-3 day/week. […] Tumors and mouse weights were measured twice weekly. At least 6-8 mice per treatment group were included. All mice were euthanized using CO2 inhalation followed by cervical dislocation per institutional guidelines at Oregon Health and Science University. Experiments were approved by the Institutional Animal Care and Use Committee at OHSU.
(§3) Immunostaining was performed following deparaffinization and rehydration of slides. Antigen retrieval was performed in a pressure cooker using citrate buffer (pH 6.0) for 4 min. Nonspecific binding was blocked using Vector mouse IgG blocking serum 30 min at room temperature. Samples were incubated at room temperature with rabbit monoclonal antibodies pS6 (CST #5364) cleaved caspase 3 (CST#9661), and Ki67 (Dako#M7240).
Slides were developed with Vector Immpress rabbit IgG (#MP7401) and Vector Immpress mouse IgG (#MP7400) for 30 min at room temperature. Chromogenic detection was performed using Vector Immpact DAB (#SK4105) for 3 min. Slides were counterstained with hematoxylin. A 3DHistech MIDI Scanner (Perkin Elmer) was used to capture whole slide digital images with a 20× objective. Images were converted to into MRXS files and computer graphic analysis was completed using inForm 1.4.0 Advanced Image Analysis Software (Perkin Elmer).
Mouse tumor size was analyzed by 2-way ANOVA with time and drug as factors, using GraphPad Prism. Mouse weight during treatment was analyzed by repeated measures 2-way ANOVA, with time and drug as factors. A P value less than 0.05 was considered statistically significant. Immunohistochemistry: P-values were calculated using one-way ANOVA, with Bonferroni's multiple comparison test. * denotes P<0.05, ** denotes P<0.01, and *** denotes P<0.001 throughout this disclosure. Metabolite fold-changes were computed and visualized in Python script, using the openpyxl package (for importing Excel files) and the matplotlib package (for visualizing fold changes).

In test [4] the test system is glycolysis. As to the kind of experiment: Glucose uptake and lactate excretion as readouts for glycolysis. It is filed as cell-based, human. From the text: The PI3K-AKT-mTOR pathway regulates multiple steps in glucose uptake and metabolism.
Test [5] deals with ACHN cells. The test can be described thus: Apoptosis (Caspase 3/7-Glo), ACHN. It is filed as cell-based, human. To be noted: ACHN, 72 h. The method, then:
(§4) Apoptosis was determined using Caspase 3/7-Glo assay kit (Promega) following the manufacturer's instructions. Briefly, 2000 cells per well were plated in 96 well plates and cultured for 72 h. […] Caspase 3/7 activity was measured using a luminometer. Luminescence values were normalized by cell numbers.

Test [6] relates to Atg5−/− murine embryonic fibroblasts. The test can be described thus: Lipid droplet number in Atg5−/− MEFs. Type of test: cell-based, mouse. The settings on record: ATG5 deficient, 24 hr. The protocol: as §1
The subject of test [7] is SN12C cells. As to the kind of experiment: Cell viability (CellTiter-Glo), SN12C. It is filed as cell-based, human. The settings on record: 3 days. The method, then: Cell viability assays were performed by plating 2000 cells/well in 96-well plates in triplicate and treating the following day with the indicated agent. The experiment was continued for 3 days and then cell viability was determined using CellTiter-Glo assay kit (Promega). The assay was measured using a luminometer. […] Experimental results are the average of at least three independent experiments.
Background: Cellular ATP, detected with luciferase, serves as a proxy for viable cell number.

For test [8], the system named is ACHN cells. As to the kind of experiment: Redox homeostasis (p-AMPK, NADPH, GSSG/GSH, ROS). Type of test: cell-based, human. The settings on record: 2 μM CYT387, 10 μM MK2206, 24 hr. The protocol: ROS levels were measured with Cellrox Deep Red (Molecular Probes). Cell were plated in a 96 well clear bottom with black sides cell culture plate. […] The complete media+drug was removed after 24 hours and replaced with 5 μM of Cellrox Deep Red in media. Cells were incubated for 30 min at 370 C then washed with PBS. Fluorescence signal was detected using a Bioteck Cytation 5 plate reader. Data was analyzed using Prism software.

In test [9] the test system is SN12C xenografts. As to the kind of experiment: SN12C xenograft study. Type of test: in vivo. The settings on record: SN12C; CYT387 50 mg/kg/day or MK2206 60 mg/kg/day oral gavage. The protocol: as §2, §3
Slides were developed with Vector Immpress rabbit IgG (#MP7401) and Vector Immpress mouse IgG (#MP7400) for 30 min at room temperature. Chromogenic detection was performed using Vector Immpact DAB (#SK4105) for 3 min. Slides were counterstained with hematoxylin. A 3DHistech MIDI Scanner (Perkin Elmer) was used to capture whole slide digital images with a 20× objective. […]
Mouse tumor size was analyzed by 2-way ANOVA with time and drug as factors, using GraphPad Prism. Mouse weight during treatment was analyzed by repeated measures 2-way ANOVA, with time and drug as factors. […] Immunohistochemistry: P-values were calculated using one-way ANOVA, with Bonferroni's multiple comparison test. * denotes P<0.05, ** denotes P<0.01, and *** denotes P<0.001 throughout this disclosure. […]

Test [10] has as its system ACHN cells. The test can be described thus: Cell viability (CellTiter-Glo), ACHN. The settings on record: ACHN, 3 days. Type of test: cell-based, human. The method, then: Cell viability assays were performed by plating 2000 cells/well in 96-well plates in triplicate and treating the following day with the indicated agent. The experiment was continued for 3 days and then cell viability was determined using CellTiter-Glo assay kit (Promega).
The assay was measured using a luminometer. […] Experimental results are the average of at least three independent experiments.

For test [11], the system named is SN12C cells. As to the kind of experiment: Apoptosis (Caspase 3/7-Glo), SN12C. Type of test: cell-based, human. To be noted: 72 h. The method, then: as §4
For test [12], the system named is ACHN cells. The test can be described thus: Cellular respiration (XF96 Seahorse, ECAR and OCR). It is filed as cell-based, human. To be noted: XF-96 Extracellular Flux Analyzer. The method, then: Oxygen consumption and extracellular acidification rates were carried out in a XF96 Seahorse Analyzer (Seahorse Bioscience, Billerica, Mass., USA). Cells were plated in the wells of 96-well plates (8×10^3 cells/well; XF96 plates, Seahorse Bioscience, North Billerica, Mass.) and incubated at 37° C. overnight. The next day, cells were treated with indicated drugs for 24 hours and then the medium was changed to XF Assay Medium and loaded with glucose, oligomycin, and 2-DG, respectively, as manufacture's recommendation.

In test [13] the test system is PI3K, mTORC1 and mTORC2 signaling. The test can be described thus: Western blotting of PI3K-AKT-mTOR signaling. It is filed as cell-based, human. To be noted: added to CYT387. The method, then:
Cells were plated in 6 well dishes and treated the following day with the indicated agents. Treatments were for 24 hours, after which cells were washed with ice cold PBS and lysed with RIPA buffer (Sigma). Phosphatase inhibitor cocktail set II and protease inhibitor cocktail set III (EMD Millipore) were added at the time of lysis. Lysates were centrifuged at 15,000 g×10 min at 4 degrees C. Protein concentrations were calculated based on a BCA assay (Thermo Scientific) generated standard curve. Proteins were resolved using the NuPAGE Novex Mini Gel system on 4% to 12% Bis-Tris Gels (Invitrogen). For western blotting, equal amounts of cell lysates (15-20 μg of protein) were resolved with SDSPAGE, and transferred to membranes. The membrane was probed with primary antibodies, washed, and then incubated with corresponding fluorescent secondary antibodies and washed. The fluorescent signal was captured using LI-COR (Lincoln, Nebr.) Odyssey Imaging System, and fluorescent intensity was quantified using the Odyssey software where indicated. The following antibodies were used for Western blots: p-S6 (S240/244), S6, LC3B, p-Akt(S473), p-Akt(T308), Akt, cleaved caspase3 (Cell Signaling Technologies). p-Stat3 (Y705), Stat3 and β-actin (AC15) (Abcam). Ki67 (Dako) and cleaved caspase3 (Cell Signaling Technologies) were used for immunohistochemistry. […] BX795 and GDC0941 were purchased from Sigma.
In general terms: In western blotting, separated proteins are transferred to a membrane and probed.

Take `NC1(c2ccc(-c3nc4ccn5c(=O)[nH]nc5c4cc3-c3ccccc3)cc2)CCC1` [MK2206]: in test [1], the “number of lipid droplets” value was “increase in the number of lipid droplets” and the “size of lipid droplets” value is “increase in the size of lipid droplets”. In addition, in [2], the LD numbers result is given as “significantly increase LD numbers”. The “antitumor effect of single agent” value in test [3] (ACHN, CYT387 50 mg/kg/day or MK2206 60 mg/kg/day oral gavage) is listed as “exhibited antitumor effect”. In addition, the “number of adipophilin-positive LDs in tumors” value in [3] (treatment day 40, ACHN xenograft tumors, CYT387<MK2206<CYT387+MK2206, p=0.0046) was “significantly and incrementally increased”. Besides, the “lactate/glucose ratio in extracellular media” value in test [4] (Control: 1.51) is listed as 0.81. The glucose uptake entry in test [4] (in vitro, 18FDG) is listed as “significantly decreased glucose uptake”. For the same compound, the lactate production result in test [4] (in vitro, culture media) was “reduced lactate production”. The “apoptosis (cleaved-caspase 3/7)” value in test [5] is given as “little or no effect on apoptosis”. Moreover, the lipid droplets entry in test [6] is “no increase in lipid droplets”. For the same compound, in test [7], the “proliferation (cell viability)” value was “some anti-proliferative effects”. Besides, in test [8], the GSSG/GSH ratios result is on record as “maintains GSSG/GSH ratios”, the NADPH levels entry is recorded as “increases NADPH levels”, the ROS entry was “mitigates ROS” and the p-AMPK result is “activates p-AMPK”. In test [9], the “antitumor effect of single agent” value is “exhibited antitumor effect”. In addition, the “proliferation (cell viability)” value in test [10] is reported as “some anti-proliferative effects”. Moreover, the “apoptosis (cleaved-caspase 3/7)” value in test [11] is “little or no effect on apoptosis”. Further, the ECAR result in [12] was “significantly reduced the ECAR”. The “effect on mTORC1 activity in cells treated with CYT387” value in test [13] is recorded as “additive inhibitory effect on mTORC1 activity”.

The record behind these values is patent publication US20190142835A1, “INHIBITION OF AUTOPHAGY USING PHOSPHOLIPASE A2 INHIBITORS” (OREGON HEALTH & SCIENCE UNIVERSITY, priority 2017, published 2019).
